The text below walks through data of patent US6500853B1, “Inhibitors of phospholipase enzymes” (Genetics Institute, LLC, priority 1998, dated 2002).

The subject of experiment [1] is Rat Carrageenan-Induced Footpad Edema. Kind of experiment: Rat Carrageenan-Induced Footpad Edema Test. Type of experiment: in vivo, male Sprague Dawley rats. The conditions noted are these: footpad volume 3 hours after carrageenan; for inhibition in vivo at 5 mg/kg: iv, IV.
A further experiment has as its target T1, cPLA2 (Homo sapiens, UniProt P47712).
T1 sequence (P47712 1-749): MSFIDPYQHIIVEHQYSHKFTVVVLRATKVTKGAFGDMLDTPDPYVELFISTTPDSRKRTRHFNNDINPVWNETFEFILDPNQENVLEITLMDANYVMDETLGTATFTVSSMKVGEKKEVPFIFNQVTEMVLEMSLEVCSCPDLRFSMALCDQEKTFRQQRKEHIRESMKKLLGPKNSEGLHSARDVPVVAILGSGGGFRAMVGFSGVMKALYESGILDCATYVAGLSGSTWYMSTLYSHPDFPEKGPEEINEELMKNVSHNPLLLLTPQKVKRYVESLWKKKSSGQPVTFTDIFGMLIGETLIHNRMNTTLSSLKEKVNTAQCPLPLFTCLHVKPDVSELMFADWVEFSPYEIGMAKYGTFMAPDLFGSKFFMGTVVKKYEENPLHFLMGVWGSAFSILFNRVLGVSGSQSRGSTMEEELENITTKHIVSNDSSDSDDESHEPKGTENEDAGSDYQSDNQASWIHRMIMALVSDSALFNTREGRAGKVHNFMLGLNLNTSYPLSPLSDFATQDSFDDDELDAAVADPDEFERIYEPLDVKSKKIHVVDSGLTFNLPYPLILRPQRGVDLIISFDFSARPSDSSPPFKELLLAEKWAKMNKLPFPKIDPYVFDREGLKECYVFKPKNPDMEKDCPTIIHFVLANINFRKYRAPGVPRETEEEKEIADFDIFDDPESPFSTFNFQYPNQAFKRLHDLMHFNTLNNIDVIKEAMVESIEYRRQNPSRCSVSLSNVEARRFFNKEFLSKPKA
Kind of experiment: Coumarin Assay (cPLA2 inhibition). The conditions noted are these: for inhibition at 100 µM: CONCENTRATION 100 micromolar; for inhibition at 400 µM: CONCENTRATION 400 micromolar. Type of experiment: biochemical. Put shortly:
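Percent inhibition at the stated concentration, from the rate of 460 nm emission rise (360 nm excitation) per minute. Reaction started by adding 4 μg enzyme to compound and 60 μM 7-hydroxycoumarinyl 6-heptenoate in Hepes buffer pH 7.5 with 1 mM EDTA.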

Setting [2] is: Rattus norvegicus, 3 h, read-out: PERCENT INHIBITION
The mark [3] stands for this setting: Rattus norvegicus, po, 3 h, PO, 2 mg/Kg, read-out: PERCENT INHIBITION
Where [4] appears, read: Rattus norvegicus, po, 3 h, PO, 10 mg/Kg, read-out: PERCENT INHIBITION

As for `COc1cc(C(=O)O)ccc1Cc1cn(C(c2ccccc2)c2ccccc2)c2ccc(NS(C)(=O)=O)cc12` [Example 10, 4-({1-benzhydryl-5-[(methylsulfonyl)amino]-1H-indol-3-yl}methyl)-3-methoxybenzoic acid], in experiment [1] (setting [2]), the inhibition in vivo at 5 mg/kg amounted to 25.3%. Moreover, at cPLA2 (CONCENTRATION 20 micromolar, read-out: PERCENT INHIBITION @), the inhibition at 20 µM worked out at 50%. Further, at cPLA2 (CONCENTRATION 30 micromolar, read-out: PERCENT INHIBITION @), the inhibition at 30 µM worked out at 50%. The inhibition at 33.5 µM on cPLA2 (CONCENTRATION 33.5 micromolar, read-out: PERCENT INHIBITION @) came out at 50%. Further, the inhibition at 40 µM on cPLA2 (CONCENTRATION 40 micromolar, read-out: PERCENT INHIBITION @) turned out to be 50%. The inhibition at 45 µM at cPLA2 (CONCENTRATION 45 micromolar, read-out: PERCENT INHIBITION @) came to 50%.

For `COc1cc(C(=O)O)ccc1Cc1cn(C(c2ccccc2)c2ccccc2)c2ccc(NS(=O)(=O)c3ccccc3C)cc12` [Example 94, 4-[(1-benzhydryl-5-{[(2-methylphenyl)sulfonyl]amino}-1H-indol-3-yl)methyl]-3-methoxybenzoic acid], the inhibition in vivo at 2 mg/kg in experiment [1] (setting [3]) came to 19%. Besides, the inhibition in vivo at 3 mg/kg in experiment [1] (Rattus norvegicus, po, 3 h, PO, 3 mg/Kg, read-out: PERCENT INHIBITION) came out at 3.13%. For the same compound, the inhibition at 7 µM at cPLA2 (CONCENTRATION 7 micromolar, read-out: PERCENT INHIBITION @) was 50%. On cPLA2 (CONCENTRATION 7.5 micromolar, read-out: PERCENT INHIBITION @), the inhibition at 7.5 µM is 50%.

Consider `O=C(Nc1cccc(C(=O)O)c1)C(=O)c1cn(C(c2ccccc2)c2ccccc2)c2ccc(NC(=O)C3CCCC3)cc12` [Example 104, 3-[(2-{1-benzhydryl-5-[(cyclopentylcarbonyl)amino]-1H-indol-3-yl}-2-oxoacetyl)amino]benzoic acid], for which the inhibition in vivo at 2 mg/kg in experiment [1] (setting [3]) amounted to 14.5%. The inhibition in vivo at 10 mg/kg in experiment [1] (setting [4]) was found to be 6.01%. The inhibition at 22 µM at cPLA2 (CONCENTRATION 22 micromolar, read-out: PERCENT INHIBITION @) is 50%. For the same compound, the inhibition at 24 µM on cPLA2 (CONCENTRATION 24 micromolar, read-out: PERCENT INHIBITION @) was determined as 50%.

Consider `O=C(Nc1ccc2c(c1)c(CNC(CO)C(=O)O)cn2C(c1ccccc1)c1ccccc1)C1CCCC1` (stereo not drawn) [Example 68, 2-[({1-benzhydryl-5-[(cyclopentylcarbonyl)amino]-1H-indol-3-yl}methyl)amino]-3-hydroxypropanoic acid], for which the inhibition in vivo at 5 mg/kg in experiment [1] (setting [2]) is -4.3%. For the same compound, on cPLA2 (read-out: PERCENT INHIBITION @), the inhibition at 100 µM was determined as 9% and the inhibition at 400 µM was 18%.

Regarding `O=C(NS(=O)(=O)C(F)(F)F)c1ccc(Cc2cn(C(c3ccccc3)c3ccccc3)c3ccc([N+](=O)[O-])cc23)cc1` [Example 55, N-{4-[(1-benzhydryl-5-nitro-1H-indol-3-yl)methyl]benzoyl}(trifluoro)methanesulfonamide], the inhibition in vivo at 2 mg/kg in experiment [1] (setting [3]) amounted to 7.02%. Moreover, in experiment [1] (setting [4]), the inhibition in vivo at 10 mg/kg came to 21.5%. On cPLA2 (CONCENTRATION 1.35 micromolar, read-out: PERCENT INHIBITION @), the inhibition at 1.35 µM amounted to 50%.

As for `COc1cc(C(=O)O)ccc1Cc1cn(C(c2ccccc2)c2ccccc2)c2ccc(F)cc12` [Example 14, 4-[(1-benzhydryl-5-fluoro-1H-indol-3-yl)methyl]-3-methoxybenzoic acid], in experiment [1] (setting [3]), the inhibition in vivo at 2 mg/kg was found to be 11.5%. For the same compound, the inhibition in vivo at 10 mg/kg in experiment [1] (setting [4]) was 8.14%. For the same compound, on cPLA2 (CONCENTRATION 0.7 micromolar, read-out: PERCENT INHIBITION @), the inhibition at 0.7 µM was determined as 50%. Moreover, the inhibition at 0.95 µM at cPLA2 (CONCENTRATION 0.95 micromolar, read-out: PERCENT INHIBITION @) amounted to 50%.

`O=C(O)CCNC(=O)c1cn(C(c2ccccc2)c2ccccc2)c2ccc(NC(=O)C3CCCC3)cc12` [Example 101, 3-[({1-benzhydryl-5-[(cyclopentylcarbonyl)amino]-1H-indol-3-yl}carbonyl)amino]propanoic acid]: the inhibition in vivo at 2 mg/kg in experiment [1] (setting [3]) stood at 11.2%. Also, the inhibition in vivo at 10 mg/kg in experiment [1] (setting [4]) is 12.4%. Moreover, at cPLA2 (read-out: PERCENT INHIBITION @), the inhibition at 100 µM came to 6% and the inhibition at 400 µM turned out to be 49%.

Consider “4-[(1-benzhydryl-5-nitro-1H-indol-3-yl)methyl]3-methoxybenzoic acid [Example 12]”, for which the “PERCENT INHIBITION” value is listed as 0.19% in experiment [1] (PO, 2 mg/Kg) and −0.38% in experiment [1] (PO, 10 mg/Kg). The “PERCENT INHIBITION @” value on cPLA2 (CONCENTRATION 0.35 micromolar), at cPLA2 (CONCENTRATION 0.38 micromolar), at cPLA2 (CONCENTRATION 0.39 micromolar), at cPLA2 (CONCENTRATION 0.4 micromolar), at cPLA2 (CONCENTRATION 0.44 micromolar) and at cPLA2 (CONCENTRATION 0.45 micromolar) was 50% each time. For the same compound, the “PERCENT INHIBITION @” value is on record as 64% on cPLA2 (CONCENTRATION 0.5 micromolar) and 86% on cPLA2 (CONCENTRATION 1.25 micromolar).

Take `O=C(NS(=O)(=O)C(F)(F)F)c1ccc(Cc2cn(C(c3ccccc3)c3ccccc3)c3ccc(Br)cc23)cc1` [Example 58, N-{4-[(1-benzhydryl-5-bromo-1H-indol-3-yl)methyl]benzoyl}(trifluoro)methanesulfonamide]: the inhibition in vivo at 2 mg/kg in experiment [1] (setting [3]) stood at 13.8%. The inhibition in vivo at 10 mg/kg in experiment [1] (setting [4]) amounted to 9.96%. For the same compound, on cPLA2 (CONCENTRATION 1.65 micromolar, read-out: PERCENT INHIBITION @), the inhibition at 1.65 µM stood at 50%.

As for `O=C(O)CCNC(=O)C(=O)c1cn(C(c2ccccc2)c2ccccc2)c2ccc(NC(=O)C3CCCC3)cc12` [Example 103, 3-[(2-{1-benzhydryl-5-[(cyclopentylcarbonyl)amino]-1H-indol-3-yl}-2-oxoacetyl)amino]propanoic acid], in experiment [1] (setting [3]), the inhibition in vivo at 2 mg/kg is 16.5%. Besides, in experiment [1] (setting [4]), the inhibition in vivo at 10 mg/kg came out at 17.3%. Moreover, the inhibition at 100 µM at cPLA2 (read-out: PERCENT INHIBITION @) came out at 50%. The inhibition at 104 µM on cPLA2 (CONCENTRATION 104 micromolar, read-out: PERCENT INHIBITION @) is 50%.

As to “4-[(1-benzhydryl-5-{[(dimethylamino)sulfonyl]amino}-1H-indol-3-yl)methyl]-3- [Example 92]”, the “PERCENT INHIBITION” value in experiment [1] (PO, 2 mg/Kg) is on record as 27.36%; in experiment [1] (PO, 10 mg/Kg) it was 21.34%. Further, the “PERCENT INHIBITION @” value on cPLA2 (CONCENTRATION 11 micromolar), at cPLA2 (CONCENTRATION 12.5 micromolar) and at cPLA2 (CONCENTRATION 14.2 micromolar) was 50% in each case.

Consider `Cc1ccccc1S(=O)(=O)NC(=O)c1ccc(Cc2cn(C(c3ccccc3)c3ccccc3)c3ccc([N+](=O)[O-])cc23)cc1` [Example 56, N-{4-[(1-benzhydryl-5-nitro-1H-indol-3-yl)methyl]benzoyl}-2-methylbenzenesulfonamide], for which, in experiment [1] (setting [3]), the inhibition in vivo at 2 mg/kg worked out at 4.22%. The inhibition in vivo at 10 mg/kg in experiment [1] (setting [4]) turned out to be 9.34%. Also, the inhibition at 0.98 µM at cPLA2 (CONCENTRATION 0.98 micromolar, read-out: PERCENT INHIBITION @) turned out to be 50%. At cPLA2 (CONCENTRATION 1.2 micromolar, read-out: PERCENT INHIBITION @), the inhibition at 1.2 µM was found to be 50%.

As for `O=C(O)c1ccc(CN2C(=O)S/C(=C/c3cn(CCCOc4cccc(Cc5ccccc5)c4)c4ccccc34)C2=O)cc1` [Example 82B, 4-{[5-((E)-{1-[3-(3-benzylphenoxy)propyl]-1H-indol-3-yl}methylidene)-2,4-dioxo-1,3-thiazolan-3-yl]methyl}benzoic acid], the inhibition in vivo at 5 mg/kg in experiment [1] (setting [2]) worked out at 4.94%. Moreover, the inhibition at 6.25 µM on cPLA2 (CONCENTRATION 6.25 micromolar, read-out: PERCENT INHIBITION @) came to 61%. For the same compound, the inhibition at 6.5 µM at cPLA2 (CONCENTRATION 6.5 micromolar, read-out: PERCENT INHIBITION @) is 50%.

In the case of `O=C(Nc1cccc(C(=O)O)c1)C(=O)c1cn(C(c2ccccc2)c2ccccc2)c2ccccc12` [Example 61, 3-{[2-(1-benzhydryl-1H-indol-3-yl)-2-oxoacetyl]amino}benzoic acid], the inhibition in vivo at 5 mg/kg in experiment [1] (setting [2]) stood at 18.3%. Further, the inhibition at 10 µM at cPLA2 (CONCENTRATION 10 micromolar, read-out: PERCENT INHIBITION @) turned out to be 50%. Besides, on cPLA2 (CONCENTRATION 12.5 micromolar, read-out: PERCENT INHIBITION @), the inhibition at 12.5 µM amounted to 54%.
